Strand notation (5' to 3'): a small letter for the sugar, then the base; units joined by * are phosphorothioate-linked, units joined directly phosphodiester-linked; [ ] holds rarer units or linkages, { } end groups; capitals alone tell only the bases. e = 2'-O-(2-methoxyethyl) (MOE); [5mC] = 5-methylcytosine; d = 2'-deoxy (DNA)
Test system: human PKK mRNA
Assay: Antisense inhibition of human PKK mRNA in HepaRG cells, 3,000 nM (Example 1)
Assay type: cell-based
Conditions: relative to untreated control cells
Method in brief: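 HepaRG cells, 20,000 per well, were electroporated with 3,000 nM 5-10-5 MOE gapmer (phosphorothioate, 5-methylcytosine). After about 24 h, PKK mRNA was measured by qRT-PCR with primer probe set RTS3454 and normalised to RIBOGREEN total RNA. Values are percent inhibition versus untreated cells.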

[1] = Table 2, PKK mRNA, HepaRG cells, 3,000 nM, electroporation, ~24 h
[2] = Table 3, HepaRG cells, electroporation with 3,000 nM antisense oligonucleotide, approx. 24 hours, PKK mRNA by RT-PCR (RTS3454)
[3] = Table 1, PKK mRNA, HepaRG cells, 3,000 nM, electroporation, ~24 h
[4] = Table 4, HepaRG cells, electroporation with 3,000 nM antisense oligonucleotide, approx. 24 hours, PKK mRNA by RT-PCR (RTS3454)

Substance | % inhibition [2] [%] | % inhibition [3] [%] | further results
531036 (antisense eG*eT*eG*eT*e[5mC]*dA*d[5mC]*d[5mC]*dT*dT*dT*dG*dG*dA*dA*eG*eG*eT*eA*eG) [compound 531036] | – | – | % inhibition [1]: 71%
531136 (antisense eT*eA*eA*e[5mC]*eA*dT*dT*dT*d[5mC]*dT*dA*dT*dG*dG*dG*e[5mC]*e[5mC]*eT*eG*eA) [compound 531136] | 6 | – | –
530936 (antisense eT*eG*e[5mC]*eT*eT*dG*d[5mC]*dT*dT*dG*dA*dA*dT*dA*dA*eA*eA*eT*e[5mC]*eA) [compound 530936] | – | 27 | –
530961 (antisense eT*eT*eG*eG*e[5mC]*dA*dT*dT*d[5mC]*dT*dT*d[5mC]*dA*dA*d[5mC]*eA*e[5mC]*eT*eG*e[5mC]) [compound 530961] | – | 88 | –
531183 (antisense e[5mC]*eA*eT*eA*eA*dG*dA*dA*dT*dG*dT*dG*d[5mC]*dA*d[5mC]*eA*e[5mC]*eA*eA*eA) [compound 531183] | – | – | % inhibition [4]: 39%
531115 (antisense eT*e[5mC]*e[5mC]*eT*eA*dA*dA*dT*dA*dG*dG*dA*dA*d[5mC]*dA*eA*eA*eG*eT*eA) [compound 531115] | 0 | – | –
531113 (antisense eA*eA*e[5mC]*eA*eG*dA*d[5mC]*dA*d[5mC]*dA*dT*dT*dA*dT*dT*eT*eA*eT*eA*eT) [compound 531113] | 0 | – | –
531096 (e[5mC]*e[5mC]*e[5mC]*eA*eA*dT*dT*d[5mC]*dT*dT*dA*dG*dT*d[5mC]*d[5mC]*eT*eT*eT*eA*eA; antisense) [compound 531096] | 45 | – | –
530954 (antisense eT*eG*eG*eA*eA*dG*dA*dA*dA*dA*d[5mC]*dT*dG*dA*dA*eT*eA*eG*e[5mC]*eA) [compound 530954] | – | 47 | –
531130 (antisense eT*eT*e[5mC]*eT*eG*dT*dG*dT*d[5mC]*dA*dA*dT*dT*dA*dT*eA*eA*eA*e[5mC]*eA) [compound 531130] | 0 | – | –
530958 (antisense eT*eT*eA*eA*eA*dA*dT*dT*dG*dA*d[5mC]*dT*d[5mC]*d[5mC]*dT*e[5mC]*eT*e[5mC]*eA*eT) [compound 530958] | – | 60 | –
531146 (antisense e[5mC]*e[5mC]*eA*eG*eT*dG*dT*dA*dA*dT*dT*d[5mC]*dA*dA*dA*eG*eG*eA*eG*e[5mC]) [compound 531146] | 40 | – | –
531148 (antisense eT*eA*e[5mC]*e[5mC]*e[5mC]*dA*dA*dA*dT*dT*dA*dT*dA*d[5mC]*d[5mC]*eT*eG*eG*eA*eA) [compound 531148] | 8 | – | –
531042 (antisense eT*eT*eA*e[5mC]*e[5mC]*dA*dA*dA*dG*dG*dA*dA*dT*dA*dT*eT*eT*eA*e[5mC]*e[5mC]) [compound 531042] | – | – | % inhibition [1]: 11%
530989 (eT*e[5mC]*eT*e[5mC]*e[5mC]*dT*d[5mC]*d[5mC]*dA*dA*dA*dG*dT*d[5mC]*dA*eA*e[5mC]*eT*e[5mC]*e[5mC]; antisense) [compound 530989] | – | 28 | –
531091 (eT*e[5mC]*eA*eG*e[5mC]*d[5mC]*d[5mC]*dA*dA*dT*dG*dT*d[5mC]*d[5mC]*dT*eA*eA*e[5mC]*e[5mC]*eT; antisense) [compound 531091] | 35 | – | –
531228 (e[5mC]*eA*eG*eA*eG*dT*dA*dA*dA*d[5mC]*dT*d[5mC]*d[5mC]*d[5mC]*d[5mC]*eA*eT*e[5mC]*eT*e[5mC]; antisense) [compound 531228] | – | – | % inhibition [4]: 33%
531011 (e[5mC]*e[5mC]*eA*eA*eG*dA*dA*dG*dA*dG*dT*dT*dT*dG*dT*eT*e[5mC]*e[5mC]*eT*e[5mC]; antisense) [compound 531011] | – | – | % inhibition [1]: 0%
30929 (antisense eA*eA*e[5mC]*eG*eG*dT*d[5mC]*dT*dT*d[5mC]*dA*dA*dG*d[5mC]*dT*eG*eT*eT*e[5mC]*eT) [compound 30929] | – | 59 | –
531185 (antisense eG*eG*eA*e[5mC]*e[5mC]*dA*dA*dA*dA*d[5mC]*dT*dG*dA*dG*dA*eG*eG*e[5mC]*eA*eG) [compound 531185] | – | – | % inhibition [4]: 63%
